Where two headings read alike, the source gives them in different places.

Test [1] has as its system LDH-2 (Ec. mundtii LDH-2). The note with it: read-out: LDH-2 D241N / pH 5.5; pH 5.5 (MES-NaOH), 1.5 mM NADH, 20 mM pyruvate; allosteric activator.
Test [2] relates to LDH-2 (Ec. mundtii LDH-2). The settings on record: read-out: LDH-2 D241N / pH 5.5, pH 5.5 (MES-NaOH), 3 mM FBP (activator).

`O=P(O)(O)OC[C@H]1OC(O)(COP(=O)(O)O)[C@@H](O)[C@@H]1O` (stereo partly drawn) [FBP]: the EC50 in test [1] was found to be 76 ± 45 nM.

As to `NC(=O)C1=CN([C@@H]2O[C@H](COP(=O)(O)OP(=O)(O)OC[C@H]3O[C@@H](n4cnc5c(N)ncnc54)[C@H](O)[C@@H]3O)[C@@H](O)[C@H]2O)C=CC1` [NADH], the Km in test [2] (20 mM pyruvate) amounted to 200 ± 40 µM.

As to `CC(=O)C(=O)O` [pyruvate], the Km in test [2] (1.5 mM NADH) came to 2300 ± 400 µM.

(Values after paper PMC4219987 (FEBS Open Bio, 2014).)
